The text below walks through data of ChEMBL document CHEMBL4342426, “Structure-activity relationship of 4-azaindole-2-piperidine derivatives as agents against Trypanosoma cruzi” (Bioorg Med Chem Lett, 2020).

Data set [1] can be described thus: in vitro. Conditions: mouse, liver microsomes. (In general: Liver microsomes are a subcellular fraction often used to study metabolism.)
Description: Metabolic stability in mouse liver microsomes assessed as intrinsic clearance at 0.5 uM incubated for 30 mins by LC-MS/MS analysis
Data set [2] in a line: in vitro. Conditions: mouse, peritoneal macrophages.
Description: (§1) Cytotoxicity against mouse peritoneal Macrophage cells assessed as reduction in cell viability incubated for 3 days by fluorimetry
The next data set in a line: cells. Particulars: Homo sapiens, MRC-5 SV2, 72 h.
The test system of a further data set is Leishmania infantum. Nature of the data set: microbe, parasite or virus in culture. Particulars: for IC50: MHOM/MA(BE)/67/ITMAP263, 120 h; for IC90: MHOM/MA(BE)/67/ITMAP263, in Mus musculus, 120 h.
Data set [3] in a line: in vitro. Particulars: PAMPA. A general note: The PAMPA barrier holds no transporters, so it reflects passive diffusion.
Description: Effective permeability of compound by PAMPA assay
Another data set can be described thus: physchem. Particulars: buffer, pH 7.4.
Another data set has as its system Trypanosoma cruzi. Nature of the data set: microbe, parasite or virus in culture. Conditions: Tulahuen CL2, MRC-5 SV2, 168 h.
The nature of data set [4]: in vitro. Particulars: human, liver microsomes.
Description: Metabolic stability in human liver microsomes assessed as intrinsic clearance at 0.5 uM incubated for 30 mins by LC-MS/MS analysis
The next data set has as its system Macrophage. The data set can be described thus: cells. Conditions: Mus musculus, 72 h.
A short description of data set [5]: in vitro. Particulars: human, MRC5 SV2 cells.
Description: Cytotoxicity against human MRC5 SV2 cells assessed as reduction in cell viability incubated for 3 days by fluorimetry
The test system of data set [6] is Trypanosoma brucei rhodesiense. The data set can be described thus: microbe, parasite or virus in culture. Conditions: STIB900, 72 h.
Description: Antiprotozoal activity against Trypanosoma brucei rhodesiense STIB900 trypomastigotes incubated for 72 hrs by resazurin dye based fluorimetric analysis
The nature of data set [7]: in vitro. Conditions: human, MRC5 SV2 cells. This is another data set of the same source.
Description: Selectivity index, ratio of IC50 for human MRC5 SV2 cells to IC50 for Trypanosoma brucei rhodesiense STIB900 trypomastigotes
Data set [8] is described as follows: in vitro. Particulars: human, MRC5 SV2 cells. This is another data set of the same source.
Description: Selectivity index, ratio of IC50 for human MRC5 SV2 cells to IC50 for Trypanosoma cruzi Tulahuen CL2 amastigotes infected in human MRC5 SV2 cells
In the next data set the test system is Trypanosoma brucei. The data set can be described thus: microbe, parasite or virus in culture. Conditions: Squib 427, 72 h.

Some results are limits rather than exact numbers.

One may read the CLint scaled as a measure of how fast metabolising enzymes remove a compound, apart from limits set by blood flow. A low value points to slow turnover. As usually defined, the microsomal CLint is the rate of metabolic loss divided by the concentration. Lower therefore signals greater metabolic stability. In general, IC90 refers to the point of the concentration-response curve where the effect stands at 90%. Read a low IC90 as greater potency. One may read the IC50 as the concentration at which inhibition is half-maximal. Read a high IC50 as weaker potency. A word on the Papp: it is a coefficient for how fast a substance crosses the barrier. High values mean fast passage, low ones slow passage. By logD is commonly meant the decadic logarithm of the distribution of all forms, ionised or not, between an organic phase and buffer at a given pH. A high value points to a more lipophilic compound.

Description for Leishmania infantum: Antileishmanial activity against amastigote stage of Leishmania infantum MHOM/MA(BE)/67/ITMAP263 infected in mouse peritoneal macrophage assessed as parasite growth inhibition incubated for 5 days by Giemsa staining based assay
Description for Macrophage: as §1
Description for Trypanosoma cruzi: Antitrypanosomal activity against Trypanosoma cruzi Tulahuen CL2 amastigotes infected in human MRC5 SV2 cells incubated for 7 days by chlorophenol red beta-D-galactopyranoside substrate based spectrophotometric assay
Description for physchem: Lipophilicity, logD of compound at pH 7.4 by HPLC analysis

Turning to `O=C(c1ccccc1)N1CC=C(c2cc3ncccc3[nH]2)CC1`, the CLint scaled at 0.5 h, 0.5 µM in the data set “in vitro [1]” was 1310 mL/min/kg; in the data set “in vitro [4]” it was less than 33.3 mL/min/kg. The values for the microsomal CLint at 0.5 h, 0.5 µM in “in vitro [1]” and in “in vitro [4]” were 305 µL/min/mg and less than 23 µL/min/mg, respectively. Also, the IC90 at 72 h in “in vitro [2]” and in the data set “in vitro [5]” was 64 µM each time. Further, the IC50 in “cells” was found to be 64 µM; in the data set with Leishmania infantum, 24.7 µM; with Trypanosoma cruzi it was 2.39 µM; with Macrophage, 64 µM; in data set [6], 30.3 µM; with Trypanosoma brucei, 64 µM. The IC90 with Leishmania infantum came out at 46.1 µM; in the data set with Trypanosoma cruzi it was 12.3 µM; in data set [6], 64 µM; in the data set with Trypanosoma brucei it was 64 µM. The compound further showed a Papp in “in vitro [3]” of 1.65 ×10⁻⁶ cm/s. In the data set “physchem”, this compound registered a logD of 2.89. In addition, the selectivity ratio in “in vitro [7]” was found to be 2.1; in the data set “in vitro [8]” it was 26.8.
In the case of `O=C(c1ccccc1)N1CCCC(c2cc3ncccc3[nH]2)C1` (stereo unspecified), the figures for the CLint scaled at 0.5 h, 0.5 µM in “in vitro [1]” and in “in vitro [4]” were 2360 mL/min/kg and 38.8 mL/min/kg, respectively. The figures for the intrinsic metabolic clearance (microsomal CLint) at 0.5 h, 0.5 µM in “in vitro [1]” and in the data set “in vitro [4]” were 508 µL/min/mg and 24.7 µL/min/mg, respectively. In addition, the IC90 at 72 h in the data set “in vitro [2]” and in the data set “in vitro [5]” was 64 µM each time. Further, the IC50 in the data set “cells” is 64 µM; in the data set on Leishmania infantum, 64 µM; in the data set on Trypanosoma cruzi, 8.5 to 9.02 µM; with Macrophage, 64 µM; in data set [6] it was 38.3 to 64 µM; with Trypanosoma brucei, 64 µM. Besides, the IC90 with Leishmania infantum was 64 µM; with Trypanosoma cruzi, 31.1 to 45.3 µM; in data set [6], 64 µM; in the data set on Trypanosoma brucei, 64 µM. The compound also gave a Papp in the data set “in vitro [3]” of 2.88 ×10⁻⁶ cm/s. Moreover, the logD in the data set “physchem” was 2.68. The selectivity ratio is 1.7 in the data set “in vitro [7]” and 7.13 to 7.5 in “in vitro [8]”.
For `O=C(c1ccc(F)cc1)N1CCCC(c2cc3ncccc3[nH]2)C1` (stereo unspecified), the CLint scaled at 0.5 h, 0.5 µM in “in vitro [1]” is 1080 mL/min/kg; in the data set “in vitro [4]” it was 41.3 mL/min/kg. Besides, the results for the microsomal CLint at 0.5 h, 0.5 µM in “in vitro [1]” and in the data set “in vitro [4]” were 337 µL/min/mg and 38.3 µL/min/mg, respectively. The IC90 at 72 h in “in vitro [2]” and in the data set “in vitro [5]” was 64 µM each time. The 50% inhibitory concentration (IC50) came out at 64 µM in “cells”; 64 µM with Leishmania infantum; 10 µM in the data set on Trypanosoma cruzi; 64 µM in the data set with Macrophage; 32.8 µM in data set [6]; 64 µM in the data set on Trypanosoma brucei. The IC90 with Leishmania infantum was 64 µM; with Trypanosoma cruzi it was 44.1 µM; in data set [6] it was 60.7 µM; with Trypanosoma brucei it was 64 µM. The compound further came in with a Papp in the data set “in vitro [3]” of 0.625 ×10⁻⁶ cm/s. Further, the logD in “physchem” was found to be 2.86. The selectivity ratio in the data set “in vitro [7]” was 1.98; in the data set “in vitro [8]”, 6.38.
Regarding `COc1ccc(Cl)cc1C(=O)N1CCCC(c2cc3ncccc3[nH]2)C1` (stereo unspecified), the CLint scaled at 0.5 h, 0.5 µM was 10300 mL/min/kg in the data set “in vitro [1]” and 207 mL/min/kg in the data set “in vitro [4]”. Moreover, the IC90 at 72 h in “in vitro [2]” and in “in vitro [5]” was 32 µM in each case. Moreover, the IC50 in “cells” turned out to be 32 µM; in the data set on Leishmania infantum, 28.5 µM; in the data set on Trypanosoma cruzi it was 3.75 µM; in the data set with Macrophage, 32 µM; in data set [6], 17.8 µM; in the data set on Trypanosoma brucei, 32 µM. The concentration for an effect of 90% (IC90) in the data set on Leishmania infantum amounted to 32 µM; with Trypanosoma cruzi, 7.59 µM; in data set [6], 32 µM; with Trypanosoma brucei, 32 µM. The selectivity ratio in “in vitro [7]” was 1.79; in the data set “in vitro [8]” it was 8.54.
